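Step 1: Grow cells in 96-well plates. Step 2: Expose to compound for 48 hours at 5 concentrations. Step 3: Interpolate endpoints linearly; if unreached, use highest concentration. The concentration for full growth arrest is given as TGI.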
Experiments:
Test in all cases: growth of human tumour cells (NCI), 48 h
NCI-H23 lung = tested on: NCI-H23 lung
EKVX NSCLC = tested on: EKVX NSCLC
OVCAR-4 ovarian = tested on: OVCAR-4 ovarian
RPMI-8226 leukemia = tested on: RPMI-8226 leukemia
RXF 393 renal = tested on: RXF 393 renal
HL-60(TB) leukemia = tested on: HL-60(TB) leukemia
DU-145 prostate = tested on: DU-145 prostate
COLO 205 colon = tested on: COLO 205 colon
786-0 renal = tested on: 786-0 renal
SK-OV-3 ovarian = tested on: SK-OV-3 ovarian
NCI-H460 lung = tested on: NCI-H460 lung
SNB-19 CNS = tested on: SNB-19 CNS
SK-MEL-2 melanoma = tested on: SK-MEL-2 melanoma
UACC-62 melanoma = tested on: UACC-62 melanoma
PC-3 prostate = tested on: PC-3 prostate

SMILES | TGI (NCI-H23 lung) | TGI (EKVX NSCLC) | TGI (OVCAR-4 ovarian) | TGI (RPMI-8226 leukemia) | TGI (RXF 393 renal) | TGI (HL-60(TB) leukemia) | TGI (DU-145 prostate) | TGI (COLO 205 colon) | TGI (786-0 renal) | TGI (SK-OV-3 ovarian) | TGI (NCI-H460 lung) | TGI (SNB-19 CNS) | TGI (SK-MEL-2 melanoma) | TGI (UACC-62 melanoma) | TGI (PC-3 prostate)
COC(=O)[C@H](Cc1ccccc1)NC(=O)c1ccc(CNC(=O)/C=C/c2csc(-c3ccccc3)n2)cc1 | > 87.4 µM | > 88.5 µM | > 71 µM | > 100 µM | 26.8 µM | > 100 µM | > 74.6 µM | > 83.2 µM | 21 µM | > 65.5 µM | 42.6 µM | 39.6 µM | 9.1 µM | 31.1 µM | > 58.2 µM
[B]C(=O)NC(CC(C)C)C(=O)NCC(=O)NC1c2ccsc2C(=O)C1O (stereo unspecified) (tested in a mixture with another compound) | > 100 µM | > 100 µM | > 100 µM | > 100 µM | > 100 µM | > 100 µM | > 100 µM | > 100 µM | > 100 µM | > 100 µM | > 31.6 µM | > 100 µM | > 100 µM | > 100 µM | > 100 µM
CCOC(=O)c1c2c(n(-c3ccc(C)cc3)c1C)-c1ccccc1C(=O)C2(C(=O)OCC)C(=O)OCC | > 100 µM | > 88.2 µM | > 100 µM | 57.5 µM | 75.2 µM | 18.6 µM | > 100 µM | > 100 µM | > 100 µM | > 100 µM | 98.5 µM | > 100 µM | > 88.5 µM | > 91.8 µM | > 100 µM
COC(=O)c1c(C)cccc1/C=C1\Cc2ccc(C)c(C)c2C1=O | > 100 µM | > 100 µM | > 100 µM | > 100 µM | > 100 µM | > 100 µM | > 100 µM | – | > 100 µM | – | > 100 µM | > 100 µM | > 100 µM | > 100 µM | > 100 µM
CN(NC1=NCCO1)c1ccc2ccccc2c1 | > 100 µM | > 100 µM | > 100 µM | > 100 µM | > 100 µM | 52.7 µM | > 100 µM | > 100 µM | > 100 µM | > 100 µM | > 100 µM | > 100 µM | 97.2 µM | > 100 µM | > 100 µM
O=C(NCCN(CCNC(=O)c1cccc(O)c1O)CCNC(=O)c1cccc(O)c1O)c1cccc(O)c1O | > 57.4 µM | > 100 µM | > 100 µM | > 59.7 µM | 94.6 µM | > 100 µM | > 78.9 µM | > 100 µM | > 100 µM | > 100 µM | > 51.6 µM | > 100 µM | > 100 µM | 48 µM | > 100 µM
O=[N+]([O-])c1ccc(/C=N/Nc2nc3ccccc3[nH]2)o1 | 43.6 µM | 67.2 µM | 21.6 µM | 15.3 µM | 28.2 µM | 11.4 µM | 27.1 µM | 23 µM | > 100 µM | > 100 µM | > 100 µM | > 100 µM | – | – | 49.2 µM
Cc1nc2c(sc3nc4c(cc32)CCC4)c(=O)o1 | > 100 µM | > 100 µM | 89 µM | > 88.3 µM | > 100 µM | > 100 µM | > 100 µM | > 100 µM | > 100 µM | > 100 µM | > 100 µM | > 96.6 µM | > 100 µM | > 100 µM | > 100 µM

Source: PubChem BioAssay (NCI)
